For the experiment, the target named is His6-TEV-PDGFRβ (557-1016) (Homo sapiens (Human), UniProt P09619). Nature of the experiment: PDGFRβ HTRF Assay. It is filed as biochemical. As to conditions: read-out: PDGFR HTRF IC50. The method in brief: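 Human PDGFRβ (557-1016) pre-incubated with compound for 30 min at RT in pH 7.5 HEPES/MgCl2/EGTA/Brij-35/DTT buffer. Reaction started with ATP and TK-biotin peptide, run 3 h at RT, then quenched with EDTA-containing Eu-cryptate antibody/streptavidin-XL665. HTRF 665/620 nm ratio read after 60 min; percent inhibition relative to DMSO and 10 μM imatinib controls.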
Sequence of His6-TEV-PDGFRβ (557-1016) (P09619 557-1016): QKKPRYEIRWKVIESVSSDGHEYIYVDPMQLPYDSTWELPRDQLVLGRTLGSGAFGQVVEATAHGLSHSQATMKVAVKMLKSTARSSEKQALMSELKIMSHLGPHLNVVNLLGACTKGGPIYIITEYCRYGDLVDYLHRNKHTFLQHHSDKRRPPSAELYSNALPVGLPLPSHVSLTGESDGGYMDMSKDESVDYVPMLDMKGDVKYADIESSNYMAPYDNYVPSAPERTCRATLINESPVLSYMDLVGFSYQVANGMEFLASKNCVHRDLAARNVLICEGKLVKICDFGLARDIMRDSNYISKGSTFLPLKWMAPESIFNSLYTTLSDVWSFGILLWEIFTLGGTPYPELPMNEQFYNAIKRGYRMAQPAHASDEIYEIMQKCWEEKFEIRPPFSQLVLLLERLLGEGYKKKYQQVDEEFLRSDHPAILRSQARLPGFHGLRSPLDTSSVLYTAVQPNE
On the technique in general: TR-FRET usually uses a lanthanide donor and a delayed reading to cut background.
As a reminder, the IC50 is the point on the concentration scale where inhibition reaches its midpoint. For `Cc1ncc(C(=O)NCCN2CCCC2)cc1NC(=O)c1cnn2cc(-c3cnn(C)c3)sc12` [Example 219, 2-(1-Methyl-1H-pyrazol-4-yl)-N-(2-methyl-5-((2-(pyrrolidin-1-yl)ethyl)carbamoyl)pyridin-3-yl)pyrazolo[5,1-b]thiazole-7-carboxamide], the half-maximal inhibitory concentration (IC50) was 0.4 nM.

Turning to `Cc1ncc(C(=O)NCCN2CCCC2)cc1NC(=O)c1cnn2cc(-c3cnn(C)c3C)sc12` [Example 220, 2-(1,5-Dimethyl-1H-pyrazol-4-yl)-N-(2-methyl-5-((2-(pyrrolidin-1-yl)ethyl)carbamoyl)pyridin-3-yl)pyrazolo[5,1-b]thiazole-7-carboxamide], the IC50 was 0.2 nM. For `Cc1ncc(C(=O)NCCN2CCCC2(C)C)cc1NC(=O)c1cnn2cc(-c3cnn(CCC(O)CO)c3)sc12` (centres unmarked) [Example 221, 2-(1-(3,4-Dihydroxybutyl)-1H-pyrazol-4-yl)-N-(5-((2-(2,2-dimethylpyrrolidin-1-yl)ethyl)carbamoyl)-2-methylpyridin-3-yl)pyrazolo[5,1-b]thiazole-7-carboxamide], the IC50 was 0.9 nM. As to `Cc1ncc(C(=O)NCCN2CCCC2)cc1NC(=O)c1cnn2cc(-c3cnn(CCC(O)CO)c3)sc12` (centres unmarked) [Example 222, 2-(1-(3,4-Dihydroxybutyl)-1H-pyrazol-4-yl)-N-(2-methyl-5-((2-(pyrrolidin-1-yl)ethyl)carbamoyl)pyridin-3-yl)pyrazolo[5,1-b]thiazole-7-carboxamide], the IC50 came to 0.7 nM. For `Cc1ncc(C(=O)NCCN2CCCC2)cc1NC(=O)c1cnn2cc(-c3c(C)nn(C)c3C)sc12` [Example 223, N-(2-methyl-5-((2-(pyrrolidin-1-yl)ethyl)carbamoyl)pyridin-3-yl)-2-(1,3,5-trimethyl-1H-pyrazol-4-yl)pyrazolo[5,1-b]thiazole-7-carboxamide] the value was 0.6 nM; for `Cc1ncc(C(=O)NCCN2CCCC2(C)C)cc1NC(=O)c1cnn2cc(-c3cn(C)nc3CO)sc12` [Example 224, N-(5-((2-(2,2-dimethylpyrrolidin-1-yl)ethyl)carbamoyl)-2-methylpyridin-3-yl)-2-(3-(hydroxymethyl)-1-methyl-1H-pyrazol-4-yl)pyrazolo[5,1-b]thiazole-7-carboxamide], 1.4 nM; for `Cc1ncc(C(=O)NCCN2CCCC2)cc1NC(=O)c1cnn2cc(-c3cnn(CC(O)CO)c3)sc12` (centres unmarked) [Example 225, 2-(1-(2,3-Dihydroxypropyl)-1H-pyrazol-4-yl)-N-(2-methyl-5-((2-(pyrrolidin-1-yl)ethyl)carbamoyl)pyridin-3-yl)pyrazolo[5,1-b]thiazole-7-carboxamide], 0.6 nM.

In the case of `COc1ncccc1-c1cn2ncc(C(=O)Nc3cc(C(=O)NCCN4CCCC4(C)C)cnc3C)c2s1` [Example 226, N-(5-((2-(2,2-Dimethylpyrrolidin-1-yl)ethyl)carbamoyl)-2-methylpyridin-3-yl)-2-(2-methoxypyridin-3-yl)pyrazolo[5,1-b]thiazole-7-carboxamide], the IC50 turned out to be 0.2 nM. Then `Cc1ncc(C(=O)NCCN2CCCC2)cc1NC(=O)c1cnn2cc(-c3cn(C)nc3C(F)(F)F)sc12` [Example 227, 2-(1-Methyl-3-(trifluoromethyl)-1H-pyrazol-4-yl)-N-(2-methyl-5-((2-(pyrrolidin-1-yl)ethyl)carbamoyl)pyridin-3-yl)pyrazolo[5,1-b]thiazole-7-carboxamide], with 0.9 nM; and `COc1ncccc1-c1cn2ncc(C(=O)Nc3cc(C(=O)NCCN4CCCC4C)cnc3C)c2s1` (centres unmarked) [Example 228, 2-(2-Methoxypyridin-3-yl)-N-(2-methyl-5-((2-(2-methylpyrrolidin-1-yl)ethyl)carbamoyl)pyridin-3-yl)pyrazolo[5,1-b]thiazole-7-carboxamide], with 0.2 nM. As to `COc1ncccc1-c1cn2ncc(C(=O)Nc3cc(C(=O)NCCN4CCCC4)cnc3C)c2s1` [Example 229, 2-(2-Methoxypyridin-3-yl)-N-(2-methyl-5-((2-(pyrrolidin-1-yl)ethyl)carbamoyl)pyridin-3-yl)pyrazolo[5,1-b]thiazole-7-carboxamide], the IC50 was found to be 0.2 nM.

Source of the values: patent US20240109917A1 (ACTELION PHARMACEUTICALS LTD, priority 2020, published 2024).
